Test results: US10800755B2, “2,6-disubstituted pyridine derivative” (Sumitomo Dainippon Pharma Co., Ltd., priority 2017, dated 2020)
Like-named read-outs stand apart in the source and are kept apart here.

How the values were obtained:
[1] = target: T1, human D4 receptor (Homo sapiens (Human), UniProt P21917); experiment: Test 2: binding activity to human D4 receptor ([3H] dopamine, CHO cell membrane)
Experimental: (§1) Test 2: Evaluation of Binding Activity to Human 5-HT1A Receptor, Human D4 Receptor, and Human D2 Receptor
(§2) CHO cell membrane fraction in which human 5-HT1A receptor, human D4 receptor, and human D2 receptor were expressed was purchased from PerkinElmer Co., Ltd. In the evaluation test of binding, the test compound dissolved in DMSO, each receptor membrane preparation diluted with buffer solution, and [3H] […] The nonspecific binding to each receptor was evaluated by a competition binding experiment in the presence of 10 μmol/L 8-OH-DPAT, 10 μmol/L dopamine, or 10 μmol/L spiperone, respectively.

[2] = target: T2, human 5-HT1A receptor (Homo sapiens (Human), UniProt P08908); experiment: Test 2: binding activity to human 5-HT1A receptor ([3H] 8-OH-DPAT, CHO cell membrane)
T2 sequence (P08908 whole entry): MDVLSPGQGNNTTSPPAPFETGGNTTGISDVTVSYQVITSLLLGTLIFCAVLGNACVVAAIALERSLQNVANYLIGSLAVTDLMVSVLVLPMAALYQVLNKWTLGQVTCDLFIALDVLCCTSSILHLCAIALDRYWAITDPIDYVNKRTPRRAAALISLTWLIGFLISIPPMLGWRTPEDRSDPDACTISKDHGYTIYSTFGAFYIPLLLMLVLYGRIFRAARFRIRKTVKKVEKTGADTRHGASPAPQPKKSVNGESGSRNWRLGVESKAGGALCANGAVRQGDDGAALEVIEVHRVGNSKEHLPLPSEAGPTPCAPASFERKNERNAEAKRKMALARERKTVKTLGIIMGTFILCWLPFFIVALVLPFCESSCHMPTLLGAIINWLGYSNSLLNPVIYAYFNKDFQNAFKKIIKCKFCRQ
Experimental: as §1, §2

[3] = Test 3-1: metabolic stability test of human liver microsome (0.1 mg/mL); format: in vitro ADME; details: test compound 0.1 μmol/L, 37° C., 30 minutes
Experimental: Test 3-1: Metabolic Stability Test of Human Liver Microsome
The stability of the present compounds for human liver microsome metabolism was evaluated as mentioned below. The used human liver microsome was obtained from Xenontech. Human liver microsome, NADPH, and each test compound were mixed in 25 mmol/L phosphate buffer solution (pH 7.4) to adjust each concentration as shown below, and the mixture was incubated at 37° C. for 30 minutes. • human liver microsome: 0.1 mg/mL • NAPDH: 3.2 mmol/L • test compound: 0.1 μmol/L
The residual ratio of the test compound in each sample after the incubation for 30 minutes was measured with a LC-MS, and the metabolic stability of human liver microsome was calculated about each test compound with the following formula. Metabolic stability of human liver microsome (mL/min/mg protein)=−LN (residual ratio)/“reaction time”/“concentration of human liver microsome”

[4] = target: hERG channel (Homo sapiens (Human), UniProt Q12809); experiment: Test 5-2: activity for inhibiting hERG channel (whole-cell patch clamp, hERG-CHO cell, Qube); format: cell-based; details: read-out: hERG inhibition IC50
Chain of hERG channel (Q12809 whole entry): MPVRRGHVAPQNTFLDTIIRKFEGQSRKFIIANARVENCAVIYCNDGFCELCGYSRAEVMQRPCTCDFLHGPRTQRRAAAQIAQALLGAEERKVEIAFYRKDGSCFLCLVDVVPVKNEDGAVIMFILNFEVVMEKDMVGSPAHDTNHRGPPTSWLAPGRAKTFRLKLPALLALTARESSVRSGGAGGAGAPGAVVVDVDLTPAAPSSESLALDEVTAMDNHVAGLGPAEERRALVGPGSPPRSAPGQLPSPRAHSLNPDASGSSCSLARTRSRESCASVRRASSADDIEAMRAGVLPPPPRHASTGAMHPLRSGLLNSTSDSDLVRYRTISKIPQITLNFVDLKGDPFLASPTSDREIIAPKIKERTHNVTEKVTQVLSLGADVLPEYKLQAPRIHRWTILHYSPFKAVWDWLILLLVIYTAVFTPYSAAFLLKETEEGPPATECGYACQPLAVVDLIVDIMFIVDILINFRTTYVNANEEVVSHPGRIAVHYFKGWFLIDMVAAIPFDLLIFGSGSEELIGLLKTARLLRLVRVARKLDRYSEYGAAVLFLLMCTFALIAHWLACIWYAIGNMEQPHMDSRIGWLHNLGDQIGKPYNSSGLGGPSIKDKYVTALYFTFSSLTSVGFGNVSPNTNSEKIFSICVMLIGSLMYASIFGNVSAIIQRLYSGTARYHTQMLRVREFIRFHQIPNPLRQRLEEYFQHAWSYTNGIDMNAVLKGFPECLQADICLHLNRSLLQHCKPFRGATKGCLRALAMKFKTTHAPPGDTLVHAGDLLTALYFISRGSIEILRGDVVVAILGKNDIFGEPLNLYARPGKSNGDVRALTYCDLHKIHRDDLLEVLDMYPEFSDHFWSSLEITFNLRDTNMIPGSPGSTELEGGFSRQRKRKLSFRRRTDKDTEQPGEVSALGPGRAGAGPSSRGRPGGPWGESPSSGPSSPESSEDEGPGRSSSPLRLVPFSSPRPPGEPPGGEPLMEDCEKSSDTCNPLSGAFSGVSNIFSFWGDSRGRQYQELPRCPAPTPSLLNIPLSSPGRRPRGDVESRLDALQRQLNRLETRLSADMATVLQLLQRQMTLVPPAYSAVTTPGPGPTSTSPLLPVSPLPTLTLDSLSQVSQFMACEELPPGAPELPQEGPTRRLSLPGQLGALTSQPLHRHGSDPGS
Experimental: Test 5-2: Evaluation of Activity for Inhibiting hERG Channel
The activity of the present compound for inhibiting hERG channel was measured by whole-cell patch clamp method with auto patch clamp system, using CHO cell wherein hERG channel involved in human rapidly activating delayed rectifier potassium current (IKr) was forcibly expressed.
hERG-CHO cell purchased from ChanTest was incubated at 37° C. in a CO2 incubator, and the cell was exfoliated from the flask with trypsin to prepare a cell suspension, shortly before the hERG current measurement.
Extracellular fluid: 2 mmol/L CaCl2, 1 mmol/L MgCl2, 10 mmol/L HEPES, 4 mmol/L KCl, 145 mmol/L NaCl, 10 mmol/L glucose
Intracellular fluid: 10 mmol/L HEPES, 10 mmol/L EGTA, 20 mmol/L KCl, 130 mmol/L KF
Test compound solution: The compound was dissolved in DMSO by adjusting the concentration to 2 mmol/L or 20 mmol/L to prepare each test compound solution. […] (Measurement of Current Value and Data Analysis)
The cell suspension, the extracellular fluid, the intracellular fluid, and the measurement plate were set in an auto patch clamp system, and the hERG current was measured by whole-cell patch clamp method. The voltage-protocol was as follows: the holding potential was adjusted to −80 mV, the depolarizing pulse was added at −50 mV to +20 mV for 5 seconds, the repolarizing pulse was added at −50 mV for 5 seconds, then the potential was returned to the holding potential. Each pulse interval was 15 seconds. The data analysis was carried out with Qube Assay Software (Sophion Scientific). The test was carried out applying increscently 4 concentrations of each test compound, and the average of the peak tail currents that were obtained by the last 3 stimulations in each applied concentration was made to be the evaluated data. By using the current inhibition rate for the pre-applied current at each concentration of each test compound, IC50 value was calculated by Hill equation with the software.

[5] = target: T1, human D4 receptor; experiment: Test 1: agonistic activity for human D4 receptor (aequorin/Gα16 luminescence in CHO-K1 cell); format: cell-based; details: for Emax: CHO-K1, 100% = 10 μmol/L endogenous ligand; for EC50: CHO-K1 cell, aequorin luminescence
Experimental: (§3) Test 1: Evaluation of Agonistic Activity for Human 5-HT1A Receptor and Human D4 Receptor
(§4) Aequorin, Gα16 proteins, and each receptor were transiently expressed in CHO-K1 cell (Chinese hamster ovary), and seeded to 384-well plate. The plate was incubated in a CO2 incubator at 37° C. for 24 hours. Each example compound dissolved in DMSO was added thereto, and the change of luminescence amount was measured with Hamamatsu FDSS/μCELL System (Hamamatsu Photonics).

[6] = target: T2, human 5-HT1A receptor; experiment: Test 1: agonistic activity for human 5-HT1A receptor (aequorin/Gα16 luminescence in CHO-K1 cell); format: cell-based; details: for Emax: CHO-K1, 100% = 10 μmol/L endogenous ligand; for EC50: CHO-K1 cell, aequorin luminescence
Experimental: as §3, §4

[7] = target: human D2 receptor (Homo sapiens (Human), UniProt P14416); experiment: Test 2: binding activity to human D2 receptor ([3H] spiperone, CHO cell membrane)
Chain of human D2 receptor (P14416 whole entry): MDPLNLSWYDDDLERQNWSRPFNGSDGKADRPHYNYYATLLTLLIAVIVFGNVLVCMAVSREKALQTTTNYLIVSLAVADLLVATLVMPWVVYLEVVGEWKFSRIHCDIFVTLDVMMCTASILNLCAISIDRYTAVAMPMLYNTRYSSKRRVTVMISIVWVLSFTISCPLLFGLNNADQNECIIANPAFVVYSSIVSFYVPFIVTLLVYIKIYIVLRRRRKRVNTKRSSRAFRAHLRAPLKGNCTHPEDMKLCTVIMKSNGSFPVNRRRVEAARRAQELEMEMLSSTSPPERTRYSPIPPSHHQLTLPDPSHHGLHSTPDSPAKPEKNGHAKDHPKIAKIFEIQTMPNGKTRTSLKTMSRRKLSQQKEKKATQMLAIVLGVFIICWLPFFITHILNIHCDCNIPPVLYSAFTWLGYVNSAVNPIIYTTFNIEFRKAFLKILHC
Experimental: as §1, §2

[8] = [3H] 8-OH-DPAT, read-out: 5-HT1A binding affinity (Ki value)
[9] = [3H] spiperone, read-out: D2 binding affinity (Ki value)
[10] = [3H] dopamine, read-out: D4 binding affinity (Ki value)

T1 sequence (P21917 whole entry): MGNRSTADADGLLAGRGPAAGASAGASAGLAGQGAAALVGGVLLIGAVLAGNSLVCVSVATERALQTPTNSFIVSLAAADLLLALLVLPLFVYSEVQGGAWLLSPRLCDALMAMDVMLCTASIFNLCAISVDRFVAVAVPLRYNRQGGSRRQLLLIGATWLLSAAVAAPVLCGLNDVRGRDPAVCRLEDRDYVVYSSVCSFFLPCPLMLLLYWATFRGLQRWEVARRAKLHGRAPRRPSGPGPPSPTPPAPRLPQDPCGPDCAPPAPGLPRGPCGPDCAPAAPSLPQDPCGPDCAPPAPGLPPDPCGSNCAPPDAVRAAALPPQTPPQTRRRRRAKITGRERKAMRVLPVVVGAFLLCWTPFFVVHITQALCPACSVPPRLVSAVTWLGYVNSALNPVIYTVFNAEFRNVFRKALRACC

Row | Compound | Ki [1] [nM] | Ki [2, 8] [nM] | Metabolic stability of human liver microsome [3] [mL/min/mg protein] | IC50 [4] [nM] | Emax [5] [%] | EC50 [5] [nM] | Emax [6] [%] | EC50 [6] [nM] | Ki [7, 9] [nM] | Ki [1, 10] [nM] | Ki [2] [nM] | Ki [7] [nM]
1 | O=C(NCCN1CC=C(c2cccc(C(F)(F)F)n2)CC1)C1CCCOC1 (stereo not drawn) [Example 16, N-{2-[6-(Trifluoromethyl)-3′,6′-dihydro[2,4′-bipyridin]-1′ (2′H)-yl]ethyl}-tetrahydro-2H-pyran-3-carboxamide] | 27 | 6 | <0.05 | > 10000 | 51 | 31 | 36 | 43 | 1690 | – | – | –
2 | CN(C)c1cccc(C2CCN(CCNC(=O)C3CCOCC3)CC2)n1 [Example 38, N-(2-{4-[6-(Dimethylamino)pyridin-2-yl]piperidin-1-yl}ethyl)-tetrahydro-2H-pyran-4-carboxamide] | – | 37 | <0.05 | > 10000 | 35 | 42 | 50 | 86 | > 10000 | 10 | – | –
3 | Cc1cccc(C2=CCN(CCNC(=O)C3CCCCO3)CC2)n1 (stereo not drawn) [Example 20] | 92 | – | <0.05 | > 10000 | 60 | 15 | 40 | 57 | – | – | 6.8 | > 10000
4 | CC(C)(C)C(=O)NCCN1CC=C(c2cccc(C(F)(F)F)n2)CC1 [Example 31, 2,2-Dimethyl-N-{2-[6-(trifluoromethyl)-3′,6′-dihydro[2,4′-bipyridin]-1′ (2′H)-yl]ethyl}propanamide] | 2.9 | 0.3 | <0.05 | > 10000 | 52 | < 10 | 40 | 35 | 1280 | – | – | –
5 | Cc1cccc(C2=CCN(CCNC(=O)[C@H]3C[C@@H]4CC[C@H]3O4)CC2)n1 [Example 13] | 24 | 1.1 | <0.05 | > 10000 | 55 | < 10 | 48 | < 10 | > 10000 | – | – | –
6 | O=C(NCCN1CCC(c2cccc(C(F)F)n2)CC1)C1CCOCC1 [Example 34] | – | 10 | <0.05 | 5500 | 55 | 15 | 42 | 22 | > 10000 | 56 | – | –
7 | Cc1cccc(C2=CCN(CCNC(=O)C3CCC(F)(F)CC3)CC2)n1 [Example 14] | 3 | 0.1 | 0.084 | 8100 | 53 | < 10 | 41 | < 10 | 2440 | – | – | –
8 | Cc1cccc(C2=CCN(CCNC(=O)C(C)(C)C)CC2)n1 [Example 30, 2,2-Dimethyl-N-[2-(6-methyl-3′,6′-dihydro[2,4′-bipyridin]-1′ (2′H)-yl)ethyl]propanamide] | 14 | 1.4 | 0.114 | > 10000 | 59 | < 10 | 36 | 27 | > 10000 | – | – | –
9 | O=C(NCCN1CC=C(c2cccc(C(F)(F)F)n2)CC1)C1CCC(F)(F)CC1 [Example 12, 4,4-Difluoro-N-{2-[6-(trifluoromethyl)-3′,6′-dihydro[2,4′-bipyridin]-1′ (2′H)-yl]ethyl}-cyclohexane-1-carboxamide] | 4.5 | 0.2 | 0.115 | 3500 | 52 | 35 | 43 | < 10 | 357 | – | – | –
10 | Cc1cccc(C2=CCN(CCNC(=O)C3CCOCC3)CC2)n1 [Example 29, N-[2-(6-Methyl-3′,6′-dihydro[2,4′-bipyridin]-1′(2′H)-yl)ethyl]-tetrahydro-2H-pyran-4-carboxamide] | 22 | 0.4 | <0.05 | > 10000 | 74 | 24 | 50 | < 10 | > 10000 | – | – | –
11 | O=C(NCCN1CCC(c2cccc(OC(F)(F)F)n2)CC1)C1CCOCC1 [Example 28] | – | 28 | <0.05 | > 10000 | 44 | 37 | 69 | 47 | 2470 | 104 | – | –
12 | Cc1cccc(C2CCN(CCNC(=O)C3CCCOC3)CC2)n1 (stereo not drawn) [Example 15] | – | 13 | <0.05 | > 10000 | 55 | 41 | 33 | 100 | > 10000 | 505 | – | –
